This is an account of results in patent US9580398B2, “Compounds, compositions, and methods for modulating ferroptosis and treating excitotoxic disorders” (The Trustees of Columbia University in the City of New York, priority 2012, dated 2017).

The EC50 is the concentration giving half of the maximal effect. Low values mean greater potency, high ones weaker potency.

A value given as a limit tells only on which side of the number the result lay.

The test system of the first experiment is HT-1080 cells. Nature of the experiment: Erastin-induced death in HT-1080 cells with co-treated inhibitors (viability, microscopy). In kind it is cell-based, human. Conditions: HT-1080 and BJeLR cells; media with glucose and Gln; AOA 2 mM. Here is the method:
(§1) Cell viability was typically assessed in 384-well format by Alamar Blue (Invitrogen) fluorescence (ex/em 530/590) measured on a Victor3 platereader (Perkin Elmer, Waltham, Mass.). In some experiments, Trypan Blue dye exclusion counting was performed using an automated cell counter (ViCell, Beckman-Coulter Inc., Brea, Calif.). Cell viability in test conditions is reported as a percentage relative to the negative control treatment.
Phase contrast images were acquired using an AMG EVOS FL (Advanced Microscopy Group) microscope equipped with a 10× phase-contrast objective. Three independent fields were acquired for each experimental condition. Representative samples from one field of view are shown.
Turning to `COC(=O)CCC(=O)C(=O)OC` [DMK, dimethyl alphaketoglutarate], the “effect on erastin-induced ferroptosis (glutamine metabolism modulators)” value (“effect on erastin-induced ferroptosis” for short) was “lethality of erastin was restored”.

Take `NOCC(=O)O` [AOA, aminooxyacetic acid]: the “effect on erastin-induced ferroptosis” value is given as “rescued”. Consider `O=C(O)C(Cl)Cl` [DCA, dichloroacetic acid], for which the “effect on erastin-induced ferroptosis” value was “had no effect”.

Staying with this experiment, now noted: HT-1080 cells.
As for `O=C(O)CN(CCOCCOCCN(CC(=O)O)CC(=O)O)CC(=O)O` [EGTA], the “effect of co-treatment on erastin-induced death” value (from here on “effect of co-treatment”) is reported as “had no effect on erastin-induced death”.

Take `Cc1ccc(N(CC(=O)O)CC(=O)O)c(OCCOc2cc3cc(-c4ncc(C(=O)O)o4)oc3cc2N(CC(=O)O)CC(=O)O)c1` [Fura-2]: the “effect of co-treatment” value was “had no effect on erastin-induced death”. As to `CC(=O)OCOC(=O)CN(CC(=O)OCOC(C)=O)c1ccccc1OCCOc1ccccc1N(CC(=O)OCOC(C)=O)CC(=O)OCOC(C)=O` [BAPTA-AM], the “effect of co-treatment” value is “had no effect on erastin-induced death”.

Staying with this experiment, now noted: HT-1080 cells; added up to 6 hours after erastin.
As for `c1ccc(-c2ccccn2)nc1` [2,2-bipyridyl], the “protection from death on late addition” value is on record as “substantial protection from death”.

Another experiment deals with erastin (10 μM)-treated HT-1080 cells. Nature of the experiment: Inhibition of death in erastin (10 μM)-treated HT-1080 cells, viability by Alamar Blue. The experiment is classed as cell-based, human. Conditions: Homo sapiens, HT-1080. As for the experimental part: as §1
Flow cytometry data was analyzed using FloJo (9.3.2, Tree Star, Inc., Ashland, Oreg.). Chemical structures were drawn using ChemDraw Ultra (Cambridgesoft, Cambridge, Mass.). Computational determination of log P (Slog P function) was performed using MOE 2010.10 (Chemical Computing Group, Montreal, […].). Viability data was analyzed using Excel (Microsoft Corp., […].). Summary data and heatmaps were generated using R. Dose-response curves were computed by 4-parameter logistic regression in Prism 5.0c (GraphPad Software). Images were manipulated using Photoshop CS4 and Illustrator CS4 (Adobe, San Jose, Calif.).
The ability of various compounds disclosed herein to inhibit death in erastin (10 μM)-treated HT-1080 cells were tested. Cell viability was assessed by Alamar Blue. EC50 values (nM) were computed from dose response curves.
Take `Nc1ccccc1NC1CCCCC1` [SRS8-75, N1-cyclohexylbenzene-1,2-diamine]: the response was half-maximal at 330 nM (EC50). `NCCOCCOC(=O)c1ccc(NC2CCCCC2)c(N)c1` [SRS8-43, 2-(2-aminoethoxy)ethyl 3-amino-4-(cyclohexylamino)benzoate] showed an EC50 of 420 nM.

The experiment is the same for the next values; noted with them: Homo sapiens, HT-1080, inhibition of death in erastin (10 μM)-treated HT-1080 cells; Alamar Blue; from dose response curves.
`CCOC(=O)c1ccc(CNc2cc(C(=O)OCC)ccc2NC2CCCCC2)cc1` [SRS12-84, ethyl 4-(cyclohexylamino)-3-(4-(ethoxycarbonyl)benzylamino)-benzoate]: the EC50 is 52 nM. The compound `CCOC(=O)c1ccc(NC2CCC(C(C)(C)C)CC2)c(NCc2cncnc2)c1` (stereo not drawn) [SRS13-37, ethyl 4-(4-tert-butylcyclohexylamino)-3-(pyrimidin-5-ylmethylamino)benzoate] yielded an EC50 of 15 nM. Compared with the last compound, the EC50 is about 3.5-fold lower. In turn, `CCOC(=O)c1ccc(NC23CC4CC(CC(C4)C2)C3)c(N)c1` [SRS15-18, ethyl 3-amino-4-(1-adamantylamino)benzoate] came in with an EC50 of 88 nM. This EC50 is about 5.9-fold higher than that of the compound before.

`CCOC(=O)c1ccc(NC2CCCCC2)c(NCc2ccc(F)c(C#N)c2)c1` [SRS12-54, ethyl 3-(3-cyano-4-fluorobenzylamino)-4-(cyclohexylamino)-benzoate]: the EC50 is 158 nM. Still for that read-out and setting: with `CCOC(=O)c1cc(N)c(NC2CCCCC2)cc1F` [SRS14-55, ethyl 5-amino-4-(cyclohexylamino)-2-fluorobenzoate] the figure was 104 nM; with `CCOC(=O)c1ccc(Cl)c(N)c1` [SRS8-62, ethyl 3-amino-4-chlorobenzoate], over 10000 nM. The compound `CCOC(=O)c1ccc(NC2CCCCC2)c(NCc2cncnc2)c1` [SRS13-35, ethyl 4-(cyclohexylamino)-3-(pyrimidin-5-ylmethylamino)-benzoate] showed an EC50 of 27 nM. `CCOC(=O)c1ccc(NC2CCOCC2)c(N)c1` [SRS8-41, ethyl 3-amino-4-(tetrahydro-2H-pyran-4-ylamino)benzoate] gave an EC50 of 1450 nM. This EC50 is about 54-fold higher than that of the compound before. `CCOC(=O)c1ccc(NC2CCCCC2)c(NCc2ccc(C(=O)OC)cc2)c1` [SRS12-69, ethyl 4-(cyclohexylamino)-3-(4-(methoxycarbonyl)-benzylamino)benzoate] gave an EC50 of 58 nM. As to `CCOC(=O)c1ccc(NC2CCNCC2)c(N)c1` [SRS8-81, ethyl 3-amino-4-(piperidin-4-ylamino)benzoate], the EC50 turned out to be 350 nM. In turn, `CCOC(=O)c1ccc(NC2C3CC4CC(C3)CC2C4)c(N)c1` (stereo not drawn) [SRS15-17, ethyl 3-amino-4-(2-adamantylamino)benzoate] showed an EC50 of 171 nM. Consider `CCOC(=O)c1cnc(NC2CCCCC2)c(N)c1` [SRS14-86, ethyl 5-amino-6-(cyclohexylamino)pyridine-3-carboxylate], for which the midpoint of the response, the EC50, lay at 544 nM. For `CCOC(=O)c1ccc(NC2C3CC4CC(C3)CC2C4)c(NCc2ccccc2)c1` (stereo not drawn) [SRS15-20-mono, ethyl 3-(benzylamino)-4-(2-adamantylamino)benzoate], the EC50 is 22 nM. `CCOC(=O)c1ccc(NC2CCCCC2)c(NCc2ccccn2)c1` [SRS12-46, ethyl 4-(cyclohexylamino)-3-(pyridin-2-ylmethylamino)-benzoate] had an EC50 of 32 nM. In turn, `CCOC(=O)c1ccc(NN2CCN(C)CC2)c(N)c1` [SRS8-53, ethyl 3-amino-4-(4-methylpiperazin-1-ylamino)benzoate] displayed an EC50 of 3600 nM.

Turning to `CCOC(=O)c1cc(N)c(NC2CCCCC2)cc1C` [SRS14-58, ethyl 5-amino-4-(cyclohexylamino)-2-methylbenzoate], the midpoint of the response, the EC50, lay at 28 nM. This EC50 is about 130-fold lower than that of the compound before. In turn, `CCOC(=O)c1ccc(NC2CCCCCCC2)c(N(C)C)c1` [SRS9-01, ethyl 4-(cyclooctylamino)-3-(dimethylamino)benzoate] yielded an EC50 of 3460 nM. Compared with the last compound, the EC50 is about 120-fold higher. For `CCOC(=O)c1ccc(NC2CCCCCCC2)c(C(=O)OC(C)(C)C)c1` [SRS8-91, ethyl 3-(tert-butoxycarbonyl)-4-(cyclooctylamino)benzoate], the half-maximal effective concentration (EC50) is over 10000 nM. Turning to `CCOC(=O)c1ccc(NC2CCC(C(C)(C)C)CC2)c(N)c1` (stereo not drawn) [SRS8-92, ethyl 3-amino-4-(4-tert-butylcyclohexylamino)benzoate], the EC50 is 42 nM.

The compound `CCOC(=O)c1ccc(NC2CCCCC2)c(NCc2ccc3ccccc3c2)c1` [SRS12-51, ethyl 4-(cyclohexylamino)-3-(naphthalen-2-ylmethylamino)-benzoate] registered an EC50 of 56 nM.

On to `CCOC(=O)c1ccc(NC23CC4CC(CC(C4)C2)C3)c(NCc2cncnc2)c1` [SRS15-25, ethyl 4-(1-adamantylamino)-3-(pyrimidin-5-ylmethylamino)-benzoate], for which the EC50 turned out to be 54 nM. Turning to `CCOC(=O)c1ccc(NC2C3CC4CC(C3)CC2C4)c(NCc2cncnc2)c1` (stereo not drawn) [SRS15-22, ethyl 4-(2-adamantylamino)-3-(pyrimidin-5-ylmethylamino)-benzoate], a half-maximal response (EC50) required 21 nM. This EC50 lies about 2.6-fold lower than the previous one. For `CCOC(=O)c1cc(N)c(NC2CCCCC2)cc1Cl` [SRS14-57, ethyl 5-amino-2-chloro-4-(cyclohexylamino)benzoate], the EC50 came out at 54 nM.

The compound `CCOC(=O)c1cnc(NC2CCCCC2)c(NCc2ccncn2)c1` [SRS14-93, ethyl 6-(cyclohexylamino)-5-(pyrimidin-4 ylmethylamino)-pyridine-3-carboxylate] came in with an EC50 of 1550 nM.

The compound `CCOC(=O)c1ccc(NC2CCC2)c(N)c1` [SRS8-71, ethyl 3-amino-4-(cyclobutylamino)benzoate] returned an EC50 of 265 nM. `CCOC(=O)c1ccc(NC2CCCC2)c(N)c1` [SRS8-73, ethyl 3-amino-4-(cyclopentylamino)benzoate] gave an EC50 of 120 nM. On the same count and under the same terms, for `CCOC(=O)c1ccc(NC2CCCCCC2)c(N)c1` [SRS8-90, ethyl 3-amino-4-(cycloheptylamino)benzoate] the value was 130 nM; for `CCOC(=O)c1ccc(NC2CCCCC2)c(NCc2ccc([N+](=O)[O-])cc2)c1` [SRS12-36, ethyl 4-(cyclohexylamino)-3-((4-nitrobenzyl)amino)benzoate], 35 nM. Same read-out and setting: for `CCOC(=O)c1cnc(NC2CCCCC2)c(NCc2ccccc2)c1` [SRS14-91, ethyl 5-(benzylamino)-6-(cyclohexylamino)pyridine-3-carboxylate] the value was 48 nM. Still for that read-out and setting: for `CCOC(=O)c1ccc(NC2CCCCC2)c(NCc2cc(F)cc(F)c2)c1` [SRS12-59, ethyl 4-(cyclohexylamino)-3-(3,5-difluorobenzylamino)-benzoate] the value was 95 nM; for `CCOC(=O)c1ccc(NC23CC4CC(CC(C4)C2)C3)c(NCc2ccncc2)c1` [SRS15-24, ethyl 4-(1-adamantylamino)-3-((pyridin-4-ylmethyl)amino)-benzoate], 9 nM; for `CCOC(=O)c1ccc(NC2C3CC4CC(C3)CC2C4)c(NCc2ccncc2)c1` (stereo not drawn) [SRS15-21, ethyl 4-(2-adamantylamino)-3-((pyridin-4-ylmethyl)amino)-benzoate], under 5 nM. As to `CCOC(=O)c1cnc(NC2CCCCC2)c(NCc2ccncc2)c1` [SRS14-92, ethyl 6-(cyclohexylamino)-5-(pyridin-4-ylmethylamino)pyridine-3-carboxylate], the EC50 turned out to be 194 nM. Turning to `CCCCCCCCN(CCCCCCCC)c1ccc(C(=O)OCC)cc1N` [SRS12-12, ethyl 3-amino-4-(dioctylamino)benzoate], the EC50 is over 10000 nM. Compound `CC(C)(C)OC(=O)CCOCCOC(=O)c1ccc(NC2CCCCC2)c(N)c1` [SRS8-37, 2-(2-(tert-butoxycarbonyl)ethoxy)ethyl 3-amino-4-(cyclohexylamino)benzoate] came in with an EC50 of 160 nM.

The same experiment, now with this note: inhibition of death in erastin (10 μM)-treated HT-1080 cells; Alamar Blue; from dose response curves.
Compound `CCOC(=O)c1ccc(NC2CCC(C(=O)OC(C)(C)C)CC2)c(N)c1` (stereo not drawn) [SRS8-46, ethyl 3-amino-4-(4-(tert-butoxycarbonyl)cyclohexylamino) benzoate] had an EC50 of 515 nM.
